≈ marks a conversion by molar mass, not a printed value. Calls of active or inactive are those of the source. The rule behind the calls is not given here.
Columns and labels:
[1] = target: Epidermal growth factor receptor (Homo sapiens, UniProt P00533); experiment: Inhibition of wild type EGFR (unknown origin) expressed in Sf9 cells pre-incubated for 30 mins before substrate and ATP addition by homogeneous time-resolved FRET assay
[2] = target: T1, Epidermal growth factor receptor (Homo sapiens, UniProt P00533, L858R)
[3] = target: T2, Epidermal growth factor receptor (Homo sapiens, UniProt P00533, L858R/T790M)
NCI-H661 = experiment: Growth inhibition of human NCI-H661 cells incubated for 96 hrs by cell-titer Glo reagent based assay; type: functional; details: NCI-H661, 96 h
[4] = Growth inhibition of human HCC827 cells with exon 19 deletion and delE746-A750 incubated for 96 hrs by cell-titer Glo reagent based assay; type: functional; details: HCC827, 96 h
NCI-H1975 [5] = experiment: Growth inhibition of human NCI-H1975 cells expressing EGFR L858R/T790M mutant incubated for 96 hrs by cell-titer Glo reagent based assay; type: functional; details: NCI-H1975, 96 h
A-431 = experiment: Growth inhibition of human A431 cells incubated for 96 hrs by cell-titer Glo reagent based assay; type: functional; details: A-431, 96 h
[6] = target: Proto-oncogene tyrosine-protein kinase Src (Homo sapiens, UniProt P12931, S348C/T341M); experiment: Inhibition of cSrc T338M/S345C mutant (unknown origin) pre-incubated for 30 mins before substrate and ATP addition by HTRF assay
[7] = target: Proto-oncogene tyrosine-protein kinase Src (Homo sapiens, UniProt P12931, T341M); experiment: Inhibition of cSrc T338M mutant (unknown origin) pre-incubated for 30 mins before substrate and ATP addition by HTRF assay
NCI-H1975 [8] = experiment: Growth inhibition of human NCI-H1975 cells expressing EGFR L858R/T790M mutant at 30 um incubated for 96 hrs by cell-titer Glo reagent based assay; type: functional
[9] = test system: Epidermal growth factor receptor (Homo sapiens), P00533 [T790M]; experiment: Binding affinity to EGFR T790M mutant (unknown origin) expressed in Sf9 cells by ESI-MS method
Homo sapiens = species on record: Homo sapiens; experiment: Selectivity index, ratio of IC50 for cSrc T338M mutant (unknown origin) to IC50 for cSrc T338M/S345C mutant (unknown origin)
[10] = target: T1, Epidermal growth factor receptor; experiment: Inhibition of EGFR L858R mutant (unknown origin) expressed in Sf9 cells by enzyme kinetics assay
[11] = test system: Epidermal growth factor receptor (Homo sapiens), P00533 [L858R,T790M]; experiment: Inhibition of EGFR L858R/T790M mutant (unknown origin) expressed in Sf9 cells assessed as enzyme inactivation constant by enzyme kinetics assay
[12] = Efflux ratio in human Caco2 cells incubated for 2 hrs; type: ADME, cell-based; details: Caco-2
[13] = target: T2, Epidermal growth factor receptor; experiment: Inhibition of EGFR L858R/T790M mutant (unknown origin) expressed in Sf9 cells by enzyme kinetics assay
[14] = Kinetic solubility in 50 mM Hepes buffer at pH 7.4; type: physicochemical; details: read-out: Kinetic_solubility
[15] = test system: Epidermal growth factor receptor (Homo sapiens), P00533 [L858R]; experiment: Inhibition of EGFR L858R mutant (unknown origin) expressed in Sf9 cells assessed as enzyme inactivation constant by enzyme kinetics assay
[16] = test system: Epidermal growth factor receptor (Homo sapiens), P00533 [T790M]; experiment: Binding affinity to EGFR T790M mutant (unknown origin) expressed in Sf9 cells assessed as covalent modification at Cys797 residue nano-LC-MS/MS method
[17] = Permeability of the compound after 16 hrs assessed as compound flux by PAMPA method; type: physicochemical
[18] = target: Proto-oncogene tyrosine-protein kinase Src (Homo sapiens, UniProt P12931); experiment: Inhibition of wild type cSrc (251 to 533 residues) (unknown origin) pre-incubated for 30 mins before substrate and ATP addition by HTRF assay
[19] = Growth inhibition of human PC9 cells with del1 deletion incubated for 96 hrs by cell-titer Glo reagent based assay; type: functional; details: PC-9, 96 h

IC50 [1] [µM] | IC50 [2] [µM] | IC50 [3] [µM] | Structure (SMILES) | GI50 [4] [µM] | also measured
> 10 | 1.9 | 0.7 | CCC(=O)Nc1ccc(Oc2nc(Nc3cc(C)[nH]n3)cc(N3CCN(C)CC3)n2)cc1 | – | –
> 10 | 3.4 | > 10 | CCC(=O)Nc1cc(Nc2cc[nH]n2)nc(-c2ccccc2)n1 | – | –
> 10 | 1.8 | 0.9 | C=CC(=O)Nc1cccc(Oc2nccc(Nc3cc(C)[nH]n3)n2)c1 | – | –
1.1 | 0.5 | 0.1 | C=CC(=O)Nc1cccc(-c2nc(Nc3cc[nH]n3)c3ccccc3n2)c1 | – | –
0.9 | 0.6 | 2.1 | C=CC(=O)Nc1ccccc1Oc1nc(Nc2cc(C)[nH]n2)cc(N2CCN(C)CC2)n1 | – | –
> 10 | > 10 | > 10 | CCC(=O)Nc1cccc(Oc2nc(Nc3cc[nH]n3)cc(N3CCN(C)CC3)n2)c1 | – | –
> 10 | 5 | 4.9 | C=CC(=O)Nc1cccc(-c2nc(Nc3n[nH]c4ccccc34)cc(N3CCN(C)CC3)n2)c1 | 16 | GI50 (NCI-H661): 12 µM; GI50 (NCI-H1975 [5]): 11 µM
3.1 | 1.8 | 2.4 | C=CC(=O)Nc1ccc(Oc2nc(Nc3cc(C)[nH]n3)cc(N3CCN(C)CC3)n2)cc1 | – | –
> 10 | 2.7 | 1.1 | C=CC(=O)Nc1ccccc1-c1nc(Nc2cc[nH]n2)c2ccccc2n1 | – | –
3.9 | 2.3 | 0.6 | Cc1cc(Nc2cc(N3CCN(C)CC3)nc(Oc3cccc([N+](=O)[O-])c3)n2)n[nH]1 | 8.9 | GI50 (NCI-H1975 [5]): 6.5 µM; GI50 (A-431): 3.5 µM
> 10 | 1.9 | > 10 | CCC(=O)Nc1cccc(Oc2nc(Nc3cc(C)[nH]n3)cc(N3CCN(C)CC3)n2)c1 | > 30 | IC50 [6]: 0.349 µM; GI50 (NCI-H1975 [5]): > 30 µM; IC50 [7]: 0.254 µM; GI50 (A-431): 8.4 µM
3.6 | 0.6 | 0.2 | C=CC(=O)Nc1cccc(Oc2nc(Nc3n[nH]c4ccccc34)cc(N3CCN(C(C)=O)CC3)n2)c1 | 25 | GI50 (NCI-H661): > 30 µM; growth inhibition (GI) (NCI-H1975 [8]): inactive
3.7 | 1.9 | 0.4 | CCC(=O)Nc1cccc(-c2nc(Nc3cc[nH]n3)c3ccccc3n2)c1 | – | –
> 10 | 0.03 | 0.5 | C=CC(=O)Nc1cccc(Oc2nc(Nc3cc(C)[nH]n3)cc(N3CCN(C)CC3)n2)c1 | 8.2 | IC50 [6]: 0.028 µM; Activity [9]: Active; Ratio IC50 (Homo sapiens): 5; Ki [10]: 0.0702 µM; Kinact [11]: 0.116 min⁻¹; efflux ratio at 2 h [12]: 32; Ki [13]: 0.00064 µM; solubility kinetic [14]: 432 µM (≈ 188 µg/mL); GI50 (NCI-H1975 [5]): 20 µM; Kinact [15]: 0.017 min⁻¹; Activity [16]: Active; IC50 [7]: 0.17 µM; GI50 (A-431): 5.7 µM; permeability [17]: 7%
– | – | – | C=CC(=O)Nc1cccc(Nc2nc(Nc3ccc(N4CCN(C(C)=O)CC4)cc3OC)ncc2C(F)(F)F)c1 [ROCILETINIB] | 0.03 | GI50 (NCI-H661): 1.7 µM; GI50 (NCI-H1975 [5]): 0.03 µM
> 10 | > 10 | > 10 | CCC(=O)Nc1ccc(-c2nc(Nc3cc[nH]n3)c3ccccc3n2)cc1 | – | –
> 10 | 1.8 | 0.9 | Cc1cc(Nc2cc(N3CCN(C)CC3)nc(Oc3ccc([N+](=O)[O-])cc3)n2)n[nH]1 | – | –

IC50 [1] [µM] | IC50 [2] [µM] | IC50 [3] [µM] | Structure (SMILES) | GI50 [4] [µM] | also measured
> 10 | > 10 | 4.9 | Cc1cc(Nc2cc(N3CCN(C)CC3)nc(Oc3cccc(N)c3)n2)n[nH]1 | > 30 | GI50 (NCI-H1975 [5]): > 30 µM; GI50 (A-431): 20 µM
> 10 | > 10 | 8.6 | CCC(=O)Nc1cccc(Oc2nc(Nc3n[nH]c4ccccc34)cc(N3CCN(C)CC3)n2)c1 | > 30 | IC50 [6]: 0.26 µM; GI50 (NCI-H661): 22 µM; GI50 (NCI-H1975 [5]): 30 µM
> 10 | 2 | 1.9 | C=CC(=O)Nc1cccc(Oc2nc(Nc3cc[nH]n3)cc(N3CCN(C)CC3)n2)c1 | – | –
> 10 | 2.8 | 2.5 | C=CC(=O)Nc1cccc(-c2nccc(Nc3cc(C)[nH]n3)n2)c1 | – | –
1.7 | 0.5 | 0.07 | C=CC(=O)Nc1cccc(Oc2nc(Nc3n[nH]c4ccccc34)cc(N3CCN(C)CC3)n2)c1 | 2.5 | IC50 [6]: 0.017 µM; Activity [9]: Active; GI50 (NCI-H661): 8.6 µM; Ki [10]: 0.833 µM; Kinact [11]: 0.137 min⁻¹; efflux ratio at 2 h [12]: 35; Ki [13]: 0.00032 µM; solubility kinetic [14]: 277 µM (≈ 130 µg/mL); GI50 (NCI-H1975 [5]): 9.8 µM; Kinact [15]: 0.055 min⁻¹; Activity [16]: Active; permeability [17]: 47%
6.7 | 3.6 | 0.7 | CN(C)C/C=C/C(=O)Nc1cccc(Oc2nc(Nc3n[nH]c4ccccc34)cc(N3CCN(C)CC3)n2)c1 | > 30 | GI50 (NCI-H661): > 30 µM; growth inhibition (GI) (NCI-H1975 [8]): inactive
> 10 | 2.1 | 2.2 | CCC(=O)Nc1ccc2c(Nc3cc[nH]n3)nc(-c3ccccc3)nc2c1 | – | IC50 [6]: 0.048 µM; IC50 [18]: 0.336 µM; IC50 [7]: 0.06 µM
> 10 | > 10 | > 10 | C=CC(=O)Nc1ccc(-c2nc(Nc3cc[nH]n3)c3ccccc3n2)cc1 | – | –
> 10 | > 10 | > 10 | CCC(=O)Nc1ccccc1-c1nc(Nc2cc[nH]n2)c2ccccc2n1 | – | –
0.9 | 0.8 | 0.3 | C=CC(=O)Nc1cc(Nc2cc[nH]n2)nc(-c2ccccc2)n1 | – | Activity [9]: Active
> 10 | > 10 | > 10 | CCC(=O)Nc1ccccc1Oc1nc(Nc2cc(C)[nH]n2)cc(N2CCN(C)CC2)n1 | – | –
> 10 | > 10 | > 10 | CCC(=O)Nc1cccc(Oc2nccc(Nc3cc(C)[nH]n3)n2)c1 | – | –
2 | 2.1 | 1.5 | Cc1cc(Nc2cc(N3CCN(C)CC3)nc(Oc3ccc(NC(=O)/C=C/C(F)(F)F)cc3)n2)n[nH]1 | – | –
> 10 | 1.9 | 1.6 | Cc1cc(Nc2cc(N3CCN(C)CC3)nc(Oc3ccccc3[N+](=O)[O-])n2)n[nH]1 | – | –
2.9 | 0.4 | 0.3 | C=CC(=O)Nc1cccc(Oc2nc(Nc3n[nH]c4ccc(Br)cc34)cc(N3CCN(C)CC3)n2)c1 | 8.6 | GI50 (NCI-H661): 11 µM; GI50 (NCI-H1975 [5]): 18 µM
> 10 | 1.9 | 2.2 | C=CC(=O)Nc1ccc2c(Nc3cc[nH]n3)nc(-c3ccccc3)nc2c1 | – | IC50 [6]: 0.043 µM; GI50 [19]: 1.9 µM; IC50 [18]: 0.211 µM; GI50 (NCI-H1975 [5]): 1.6 µM; IC50 [7]: 0.065 µM; GI50 (A-431): 0.7 µM
> 10 | 2.1 | 1.4 | Cc1cc(Nc2cc(N3CCN(C)CC3)nc(Oc3ccc(N)cc3)n2)n[nH]1 | – | –

Reference: ChEMBL document CHEMBL3603765, “Targeting Drug Resistance in EGFR with Covalent Inhibitors: A Structure-Based Design Approach” (J Med Chem, 2015)
